The record followed here is US9834535B2, “Sulfamate derivative compounds for use in treating or alleviating pain” (Bio-Pharm Solutions Co., Ltd., priority 2013, dated 2017).

One assay has as its system CFA-induced pain model. The assay is described as follows: Antiallodynic activity on Complete Freund's Adjuvant (CFA)-induced inflammatory pain model (von Frey). The class given is in vivo, Sprague-Dawley rats. As to conditions: 60 mg/kg, 0.5 h, rat, intraperitoneal. The method, then:
Male, Sprague-Dawley rats (200-220 g, Nara Bio, Korea) were habituated for 1 week before surgery and allowed free access to food and water throughout the experimentation. Room temperature and humidity were maintained at 24±2° C. and 50±10%, respectively.
CFA-induced inflammatory pain was induced by the procedure of Nagakura et al. (2003) and Gregory P. et al. (2010) with minor modifications. CFA (sigma, USA) was injected in the left plantar with a 100 ul volume under gaseous anesthesia with isoflurane a 4:4 flow ratio of NO2 Sham controls were injected with 100 ul of saline and vehicle controls were identical to CFA infusion model, except for administration of vehicles.
Tactile sensitivity (Mechanical allodynia) was evaluated using von Frey monofilaments before and after treatment, and animals were used withdrawal threshold value was less than 4 g. One week after surgery, CFA-infused animals (n=4˜6), sham-operated animals (n=12), and vehicle-operated animals (n=17) were tested for tactile sensitivity with von Frey monofilaments 3 trials in each animal. All Animals were placed in a stainless steel mashed chamber and habituated for 30 min in the test box. The tactile sensitivity for ipsilateral hind paw was measured using the up-and-down method (Dixon, 1980) with seven von Frey monofilaments (0.4, 1, 2, 4, 6, 8, and 15 g) to 3 trials. Tactile sensitivity test was followed by Dixon's method (Dixon, 1980). The 50% paw withdrawal threshold for each paw was calculated using the following formula: [Xth] log=[vFr] log+ky where [vFr] is the force of the last von Frey used, k=0.2249 which is the average interval (in log units) between the von Frey monofilaments, and y is a value that depends upon the pattern of withdrawal responses (Dixon, 1980).
[…] The test was performed peak time of efficacy (0.5 hr) after compound administration.
The relative values compared to the sham (% control) were calculated and shown in Table 4, which show an antiallodynic effect of the compound of Examples on CFA-induced pain model in rats.
Turning to `CC1(C)OC(COS(N)(=O)=O)C(c2ccccc2Cl)O1` (mixture of isomers) [Example 3, (5-(2-chlorophenyl)-2,2-dimethyl-1,3-dioxolan-4-yl)methyl sulfamate(SS & RR mixture)], the “CFA model: effect (%) at the concentration administered” value was “^#60 (24.0%, 0.5 h)”.

On to `CC1(C)OC(COS(N)(=O)=O)C(c2ccccc2Cl)O1` (mixture of isomers) [Example 4, (5-(2-chlorophenyl)-2,2-dimethyl-1,3-dioxolan-4-yl)methyl sulfamate(SR & RS mixture)], for which the “CFA model: effect (%) at the concentration administered” value is “^#60 (49.9%, 0.5 h)”.

Still in this assay, the particulars now being: Rattus norvegicus, ip, 0.5 h, 18 mg/kg, 0.5 h, rat, intraperitoneal; read-out: CFA model: effect (%) at the concentration administered.
For the molecule `NS(=O)(=O)OC[C@@H]1OC2(CCCCC2)O[C@H]1c1ccccc1Cl` [Example 12, ((2S,3S)-3-(2-chlorophenyl)-1,4-dioxaspiro[4,5]decan-2-yl)methyl sulfamate], the response vs control in vivo at 18 mg/kg worked out at 48.8%.

Consider `NS(=O)(=O)OC[C@H]1OC2(CCCCC2)O[C@@H]1Cc1ccccc1` [Example 128, ((2R,3R)-3-benzyl-1,4-dioxaspiro[4,5]decan-2-yl)methyl sulfamate], for which the response vs control in vivo at 18 mg/kg was 24.5%.

On to `NS(=O)(=O)OCC[C@@H]1OC2(CCCC2)O[C@H]1c1ccccc1` [Example 134, 2-((2S,3S)-3-phenyl-1,4-dioxaspiro[4,4]nonan-2-yl)ethyl sulfamate], for which the response vs control in vivo at 18 mg/kg came to 71.1%.

Regarding `NS(=O)(=O)OCC[C@@H]1OC2(CCCCC2)O[C@H]1c1ccccc1` [Example 136, 2-((2S,3S)-3-phenyl-1,4-dioxaspiro[4,5]decan-2-yl)ethyl sulfamate], the response vs control in vivo at 18 mg/kg stood at 32.4%.

The same assay, now with this note: Rattus norvegicus, ip, 0.5 h, 40 mg/kg, 0.5 h, rat, intraperitoneal; read-out: CFA model: effect (%) at the concentration administered.
As to `CCC1(CC)O[C@@H](COS(N)(=O)=O)[C@H](c2ccccc2Cl)O1` [Example 8, ((4S,5S)-5-(2-chlorophenyl)-2,2-diethyl-1,3-dioxolan-4-yl)methyl sulfamate], the response vs control in vivo at 40 mg/kg came out at 23.3%.

As for `CCC1(CC)O[C@@H](COS(N)(=O)=O)[C@H](c2ccccc2N)O1` [Example 70, ((4S,5S)-5-(2-aminophenyl)-2,2-diethyl-1,3-dioxolan-4-yl)methyl sulfamate], the response vs control in vivo at 40 mg/kg came out at 18.8%.

In the case of `CNc1ccccc1[C@@H]1OC(C)(C)O[C@H]1COS(=O)(=O)NC` [Example 104, ((4S, 5S)-5-(2-methylaminophenyl)-2,2-dimethyl-1,3-dioxolan-4-yl)methyl methylsulfamate], the response vs control in vivo at 40 mg/kg is 24.1%.

On to `CCC1(CC)O[C@@H](COS(N)(=O)=O)[C@H](c2ccccc2)O1` [Example 108, ((4S,5S)-5-phenyl-2,2-diethyl-1,3-dioxolan-4-yl)methyl sulfamate], for which the response vs control in vivo at 40 mg/kg came to 37.5%.

As for `NS(=O)(=O)OC[C@@H]1OC2(CCCC2)O[C@H]1c1ccccc1` [Example 110, ((2S,3S)-3-phenyl-1,4-dioxaspiro[4,4]nonan-2-yl)methyl sulfamate], the response vs control in vivo at 40 mg/kg is 42.7%.

Turning to `NS(=O)(=O)OC[C@@H]1OC2(CCCCC2)O[C@H]1c1ccccc1` [Example 112, ((2S,3S)-3-phenyl-1,4-dioxaspiro[4,5]decan-2-yl)methyl sulfamate], the response vs control in vivo at 40 mg/kg was 41.1%.

In the case of `CC1(C)O[C@H](CCOS(N)(=O)=O)[C@@H](Cc2ccccc2)O1` [Example 114, 2-((4R,5R)-5-benzyl-2,2-dimethyl-1,3-dioxolan-4-yl)ethyl sulfamate], the response vs control in vivo at 40 mg/kg stood at 29.8%.

Turning to `CCC1(CC)O[C@H](CCOS(N)(=O)=O)[C@@H](Cc2ccccc2)O1` [Example 116, 2-((4R,5R)-5-benzyl-2,2-diethyl-1,3-dioxolan-4-yl)ethyl sulfamate], the response vs control in vivo at 40 mg/kg was found to be 14.5%.

As for `NS(=O)(=O)OCC[C@H]1OC2(CCCCC2)O[C@@H]1Cc1ccccc1` [Example 120, 2-((2R,3R)-3-benzyl-1,4-dioxaspiro[4,5]decan-2-yl)ethyl sulfamate], the response vs control in vivo at 40 mg/kg was determined as 23%.

`CCC1(CC)O[C@H](COS(N)(=O)=O)[C@@H](Cc2ccccc2)O1` [Example 124, ((4R,5R)-5-benzyl-2,2-diethyl-1,3-dioxolan-4-yl)methyl sulfamate]: the response vs control in vivo at 40 mg/kg worked out at 34.2%.

`NS(=O)(=O)OC[C@H]1OC2(CCCC2)O[C@@H]1Cc1ccccc1` [Example 126, ((2R,3R)-3-benzyl-1,4-dioxaspiro[4,4]nonan-2-yl)methyl sulfamate]: the response vs control in vivo at 40 mg/kg was 43.5%.

Turning to `CC1(C)O[C@@H](CCOS(N)(=O)=O)[C@H](c2ccccc2)O1` [Example 130, 2-((4S,5S)-5-phenyl-2,2-dimethyl-1,3-dioxolan-4-yl)ethyl sulfamate], the response vs control in vivo at 40 mg/kg was determined as 19.4%.

In the case of `CCC1(CC)O[C@@H](CCOS(N)(=O)=O)[C@H](c2ccccc2)O1` [Example 132, 2-((4S,5S)-5-phenyl-2,2-diethyl-1,3-dioxolan-4-yl)ethyl sulfamate], the response vs control in vivo at 40 mg/kg was found to be 24.8%.

For the molecule `CCC1(CC)O[C@H](CCOS(N)(=O)=O)[C@@H](Cc2ccccc2Cl)O1` [Example 140, 2-((4R,5R)-5-(2-chlorobenzyl)-2,2-diethyl-1,3-dioxolan-4-yl)ethyl sulfamate], the response vs control in vivo at 40 mg/kg is 37.4%.

The same assay, now with this note: Rattus norvegicus, ip, 0.5 h, 60 mg/kg, 0.5 h, rat, intraperitoneal; read-out: CFA model: effect (%) at the concentration administered.
For `CC1(C)O[C@H](c2cnc(Cl)s2)[C@@H](COS(N)(=O)=O)O1` (stereo in doubt) [Example 166, ((4R,5S)-5-(2-chlorothiazol-5-yl)-2,2-dimethyl-1,3-dioxolan-4-yl)methyl sulfamate], the response vs control in vivo at 60 mg/kg stood at 30.4%.

Turning to `CC1(C)O[C@H](c2ccccc2Cl)[C@@H](COS(N)(=O)=O)O1` [Example 1, ((4R,5R)-5-(2-chlorophenyl)-2,2-dimethyl-1,3-dioxolan-4-yl)methyl sulfamate], the response vs control in vivo at 60 mg/kg is 21.1%.

For `CC1O[C@@H](COS(N)(=O)=O)[C@H](c2ccccc2Cl)O1` (stereo partly drawn) [Example 6, ((4S,5S)-5-(2-chlorophenyl)-2-methyl-1,3-dioxolan-4-yl)methyl sulfamate], the response vs control in vivo at 60 mg/kg stood at 22.4%.

`NS(=O)(=O)OC[C@@H]1OC2(CCCC2)O[C@H]1c1ccccc1Cl` [Example 10, ((2S,3S)-3-(2-chlorophenyl)-1,4-dioxaspiro[4,4]nonan-2-yl)methyl sulfamate]: the response vs control in vivo at 60 mg/kg was 20.7%.

For the molecule `CC1(C)O[C@@H](COS(N)(=O)=O)[C@H](c2ccc(Cl)cc2Cl)O1` [Example 40, ((4S,5S)-5-(2,4-dichlorophenyl)-2,2-dimethyl-1,3-dioxolan-4-yl)methyl sulfamate], the response vs control in vivo at 60 mg/kg was 22.5%.

Consider `CC1(C)O[C@@H](COS(N)(=O)=O)[C@H](c2c(Cl)cccc2Cl)O1` [Example 52, ((4S,5S)-5-(2,6-dichlorophenyl)-2,2-dimethyl-1,3-dioxolan-4-yl)methyl sulfamate], for which the response vs control in vivo at 60 mg/kg is 33.3%.

`Nc1ccccc1[C@@H]1OC2(CCCCC2)O[C@H]1COS(N)(=O)=O` [Example 74, ((2S,3S)-3-(2-aminophenyl)-1,4-dioxaspiro[4,5]decan-2-yl)methyl sulfamate]: the response vs control in vivo at 60 mg/kg was found to be 37.1%.

As to `NS(=O)(=O)OC[C@@H]1OC(=O)O[C@H]1c1ccccc1[N+](=O)[O-]` [Example 90, ((4S, 5S)-5-(2-nitrophenyl)-2-oxo-1,3-dioxolan-4-yl)methyl sulfamate], the response vs control in vivo at 60 mg/kg came to 15.6%.

Still in this assay, the particulars now being: Rattus norvegicus, ip, 1 h, 60 mg/kg, 1 h, rat, intraperitoneal; read-out: CFA model: effect (%) at the concentration administered.
For `CC1(C)O[C@@H](COS(N)(=O)=O)[C@H](c2ccccc2N)O1` [Example 66], the response vs control in vivo at 60 mg/kg is 16.5%.
